Source: patent US20030215888A1, “Androgen receptor overexpressing skeletal myoblasts” (Pfizer Inc., priority 2002, published 2003)
Where two headings read alike, the source gives them in different places.

Legend:
C2hAR57 cells [1] = details: for Change in protein content: during 24 hours in fusion medium
Procedure: Procedure B—24 Hours in fusion medium. […] Cell extracts were prepared from the second set of cultures after 24 hours in fusion medium (day one). The change in protein content was determined by subtracting the average protein content for each treatment on day zero from the average protein content on day one.

C2hAR57 cells [2] = details: C2hAR57, 100 nM DHT, 1, 2 or 3 days in fusion medium
From the text: Fusion medium was changed daily. C2hAR57 cells at low density in high mitogen growth medium appeared as small, adherent mononuclear cells.

C[C@]12CCC(=O)C[C@@H]1CC[C@@H]1[C@@H]2CC[C@]2(C)[C@@H](O)CC[C@@H]12 [DHT, dihydrotestosterone]
Change in protein content (C2hAR57 cells [1]; C2hAR57, 0.001 nM DHT): −93 micrograms/well | Change in protein content (C2hAR57 cells [1]; C2hAR57, 0.1 nM DHT): −56 micrograms/well | Change in protein content (C2hAR57 cells [1]; C2hAR57, 10 nM DHT): +48 micrograms/well | Change in protein content (C2hAR57 cells [1]; C2hAR57, 1000 nM DHT): +61 micrograms/well | effect on net loss of protein seen with vehicle (C2hAR57 cells [1]; C2hAR57, increasing concentrations of DHT, Procedure B): ameliorated and even reversed | rate of myotube formation (C2hAR57 cells [2]): more rapidly
